Assay: Ethanol release testing at 100 rpm paddle speed (Example 32)
Assay type: physicochemical

CC(=O)Nc1ccc(O)cc1 [APAP]
Percent Release, Mean (0% Ethanol, 15 min): 52.2%
Percent Release, Mean (0% Ethanol, 30 min): 54.6%
Percent Release, Mean (0% Ethanol, 45 min): 56.8%
Percent Release, Mean (0% Ethanol, 60 min): 58.8%
Percent Release, Mean (0% Ethanol, 75 min): 60.8%
Percent Release, Mean (0% Ethanol, 90 min): 62.6%
Percent Release, Mean (0% Ethanol, 120 min): 66.0%
Percent Release, Mean (0% Ethanol, 240 min): 78.6%
Percent Release, Mean (0% Ethanol, 480 min): 95.5%
Percent Release, Mean (5% Ethanol, 15 min): 52.6%
Percent Release, Mean (5% Ethanol, 30 min): 55.1%
Percent Release, Mean (5% Ethanol, 45 min): 57.1%
Percent Release, Mean (5% Ethanol, 60 min): 58.9%
Percent Release, Mean (5% Ethanol, 75 min): 60.7%
Percent Release, Mean (5% Ethanol, 90 min): 62.3%
Percent Release, Mean (5% Ethanol, 120 min): 65.5%
Percent Release, Mean (5% Ethanol, 240 min): 77.2%
Percent Release, Mean (5% Ethanol, 480 min): 94.4%
Percent Release, Mean (10% Ethanol, 15 min): 51.7%
Percent Release, Mean (10% Ethanol, 30 min): 54.1%
Percent Release, Mean (10% Ethanol, 45 min): 56.0%
Percent Release, Mean (10% Ethanol, 60 min): 57.8%
Percent Release, Mean (10% Ethanol, 75 min): 59.5%
Percent Release, Mean (10% Ethanol, 90 min): 61.1%
Percent Release, Mean (10% Ethanol, 120 min): 64.1%
Percent Release, Mean (10% Ethanol, 240 min): 75.5%
Percent Release, Mean (10% Ethanol, 480 min): 93.5%
Percent Release, Mean (20% Ethanol, 15 min): 50.2%
Percent Release, Mean (20% Ethanol, 30 min): 53.4%
Percent Release, Mean (20% Ethanol, 45 min): 55.5%
Percent Release, Mean (20% Ethanol, 60 min): 57.3%
Percent Release, Mean (20% Ethanol, 75 min): 59.0%
Percent Release, Mean (20% Ethanol, 90 min): 60.5%
Percent Release, Mean (20% Ethanol, 120 min): 63.3%
Percent Release, Mean (20% Ethanol, 240 min): 76.0%
Percent Release, Mean (20% Ethanol, 480 min): 91.9%
Percent Release, Mean (40% Ethanol, 15 min): 16.7%
Percent Release, Mean (40% Ethanol, 30 min): 30.4%
Percent Release, Mean (40% Ethanol, 45 min): 38.5%
Percent Release, Mean (40% Ethanol, 60 min): 43.1%
Percent Release, Mean (40% Ethanol, 75 min): 46.1%
Percent Release, Mean (40% Ethanol, 90 min): 48.3%
Percent Release, Mean (40% Ethanol, 120 min): 51.1%
Percent Release, Mean (40% Ethanol, 240 min): 60.8%
Percent Release, Mean (40% Ethanol, 480 min): 77.2%

— patent publication US20140294956A1, “GASTRIC RETENTIVE EXTENDED RELEASE PHARMACEUTICAL COMPOSITIONS” (MALLINCKRODT LLC, priority 2011, published 2014)
